Measurements published in patent EP4782448A1, “SUBSTITUTED PYRIDOTRIAZOLE COMPOUND, AND PREPARATION METHOD THEREFOR AND USE THEREOF” (Origiant Pharmaceutical Co., Ltd., priority 2023, dated 2025).

tested on: HT-29 cells; test: In vitro assay for protection of HT-29 cells from necroptosis (TNFα/Smac mimetic/Z-VAD-FMK induction, CCK8 readout); assay type: cell-based; settings: TNFα/Smac mimetic/Z-VAD-FMK for 24 h; inhibition of necroptosis; read-out: HT-29 (EC50)

Compound | EC50 [nM]
C[C@H](NC(=O)c1cn(C)c2ccc(-c3ccn4nc(NC(=O)CN5CCCOCC5)nc4c3)cc12)c1ccc(F)cc1 [Compound 30] | < 1
C[C@H](NC(=O)c1cn(C)c2ccc(-c3ccn4nc(NC(=O)[C@H]5CCCO5)nc4c3)cc12)c1cccc(F)c1 [Compound 119] | < 1
C[C@H](NC(=O)c1cn(C)c2ccc(-c3ccn4nc(NC(=O)Cn5ccnn5)nc4c3)cc12)c1ccc(F)cc1 [Compound 52] | < 1
C[C@H](NC(=O)c1cn(C)c2ccc(-c3ccn4nc(NC(=O)CC(=O)O)nc4c3)cc12)c1ccc(F)cc1 [Compound 63] | 1000 to 10000
C[C@H](NC(=O)c1cn(C)c2ccc(-c3ccn4nc(NC(=O)CN5CCC[C@H](O)C5)nc4c3)cc12)c1ccc(F)cc1 [Compound 7] | < 1
Cn1cc(C(=O)N[C@H](c2ccc(F)cc2)C(F)F)c2cc(-c3ccn4nc(NC(=O)CC#N)nc4c3)ccc21 [Compound 164] | < 1
Cn1cc(C(=O)N2CC(F)(F)CC2c2ccc(F)cc2)c2cc(-c3ccn4nc(NC(=O)C5CCOC5)nc4c3)ccc21 (stereo not drawn) [Compound 159] | < 1
Cn1nc(C(=O)N[C@@H](CF)c2ccc(F)cc2)c2cc(-c3ccn4nc(NC(=O)C5CC5)nc4c3)ccc21 [Compound 190] | < 1
C[C@H](NC(=O)c1cn(C)c2ccc(-c3ccn4nc(NC(=O)CN5CCC(C#N)CC5)nc4c3)cc12)c1ccc(F)cc1 [Compound 23] | < 1
COCCOCCOCCOCC(=O)Nc1nc2cc(-c3ccc4c(c3)c(C(=O)N[C@@H](C)c3ccc(F)cc3)cn4C)ccn2n1 [Compound 26] | < 1
Cn1cc(C(=O)Nc2nc3cc(-c4ccc5c(c4)c(C(=O)N[C@H]4CCCc6cc(F)ccc64)cn5C)ccn3n2)cn1 [Compound 141] | 1 to 10
CCOC(=O)Nc1nc2cc(-c3ccc4c(c3)c(C(=O)N[C@@H](C)c3ccc(F)cc3)cn4C)ccn2n1 [Compound 17] | < 1
Cn1nc(C(=O)N[C@@H](CF)c2ccc(F)cc2)c2cc(-c3ccn4nc(NC(=O)C5CCOC5)nc4c3)ccc21 (stereo partly drawn) [Compound 188] | < 1
CN1CCC(C(=O)Nc2nc3cc(-c4ccc5c(c4)c(C(=O)N[C@H](c4ccc(F)cc4)C(F)F)cn5C)ccn3n2)C1 (stereo partly drawn) [Compound 168] | < 1
CC(C(=O)Nc1cn(C)c2ccc(-c3ccn4nc(NC(=O)[C@H]5CCCO5)nc4c3)cc12)c1ccc(F)cc1 (stereo partly drawn) [Compound 178] | 100 to 1000
Cn1cc(C(=O)N[C@@H](CF)c2ccc(F)cc2)c2cc(-c3ccn4nc(NC(=O)N5CCOCC5)nc4c3)ccc21 [Compound 103] | < 1
Cn1cc(C(=O)Nc2nc3cc(-c4ccc5c(c4)c(C(=O)N4N=CCC4c4ccc(F)cc4)cn5C)ccn3n2)cn1 (stereo not drawn) [Compound 171] | 1 to 10
CO[C@@H](C)C(=O)Nc1nc2cc(-c3ccc4c(c3)c(C(=O)N[C@H](c3ccc(F)cc3)C(F)F)cn4C)ccn2n1 [Compound 165] | < 1
C[C@H](NC(=O)c1cn(C)c2ccc(-c3ccn4nc(NC(=O)Cn5cccn5)nc4c3)cc12)c1ccc(F)cc1 [Compound 58] | < 1

Compound | EC50 [nM]
C[C@H](NC(=O)c1cn(C)c2ccc(-c3ccn4nc(NC(=O)CN5CC[C@@H](CO)C5)nc4c3)cc12)c1ccc(F)cc1 [Compound 62] | < 1
Cn1cc(C(=O)N[C@H]2CCCc3cc(F)ccc32)c2cc(-c3ccn4nc(NC(=O)[C@H]5CCCO5)nc4c3)ccc21 [Compound 137] | 10 to 100
C[C@H](NC(=O)c1cn(C)c2ccc(-c3ccn4nc(NC(=O)CNCCOCCO)nc4c3)cc12)c1ccc(F)cc1 [Compound 65] | < 1
C[C@H](NC(=O)c1cn(C)c2ccc(-c3ccn4nc(NC(=O)c5cnn(C)c5)nc4c3)cc12)C(C)(C)C [Compound 91] | 1000 to 10000
C[C@H](NC(=O)c1nn(C)c2ccc(-c3ccn4nc(NC(=O)[C@H]5CCCO5)nc4c3)cc12)c1ccc(F)cc1 [Compound 193] | < 1
Cn1cc(C(=O)Nc2nc3cc(-c4ccc5c(c4)c(C(=O)N[C@@H](CF)c4ccc(F)cc4)cn5C)ccn3n2)cn1 [Compound 111] | 1 to 10
C[C@H](NC(=O)c1cn(C)c2ccc(-c3ccn4nc(NC(=O)CN5CCN(CCO)CC5)nc4c3)cc12)c1ccc(F)cc1 [Compound 70] | < 1
C[C@H](NC(=O)c1cn(C)c2ccc(-c3ccn4nc(NC(=O)CN5CCS(=O)(=O)CC5)nc4c3)cc12)c1ccc(F)cc1 [Compound 28] | 1 to 10
C[C@H](NC(=O)c1cn(C)c2ccc(-c3ccn4nc(NC(=O)C(N)=O)nc4c3)cc12)c1ccc(F)cc1 [Compound 11] | 1 to 10
C[C@H](NC(=O)c1cn(C)c2ccc(-c3ccn4nc(NC(=O)C5CC5)nc4c3)cc12)C(C)(C)C [Compound 93] | 100 to 1000
C[C@H](NC(=O)c1cn(C)c2ccc(-c3ccn4nc(NC(=O)CN5CCOC[C@@H]5CO)nc4c3)cc12)c1ccc(F)cc1 [Compound 35] | < 1
Cn1cc(C(=O)Nc2nc3cc(-c4ccc5c(c4)c(C(=O)N[C@H]4CCCc6ccc(F)cc64)cn5C)ccn3n2)cn1 [Compound 143] | 1 to 10
Cn1cc(C(=O)N2CC(F)(F)CC2c2ccc(F)cc2)c2cc(-c3ccn4nc(NC(=O)C5CC5)nc4c3)ccc21 (stereo not drawn) [Compound 158] | 1000 to 10000
COC(C)C(=O)Nc1nc2cc(-c3ccc4c(c3)c(-c3nncn3C(C)c3ccc(F)cc3)cn4C)ccn2n1 (stereo not drawn) [Compound 216] | 10 to 100
C[C@H](NC(=O)c1cn(C)c2ccc(-c3ccn4nc(NC(=O)CN5CC[C@H](CO)C5)nc4c3)cc12)c1ccc(F)cc1 [Compound 61] | 1 to 10
CC(C(=O)Nc1cn(C)c2ccc(-c3ccn4nc(NC(=O)C5CC5)nc4c3)cc12)c1ccc(F)cc1 (stereo not drawn) [Compound 177] | 10 to 100
COCCOCCOCC(=O)Nc1nc2cc(-c3ccc4c(c3)c(C(=O)N[C@@H](C)c3ccc(F)cc3)cn4C)ccn2n1 [Compound 25] | < 1
Cn1cc(C(=O)N[C@@H](CF)c2ccc(F)cc2)c2cc(-c3ccn4nc(NC(=O)C5CC5)nc4c3)ccc21 [Compound 114] | < 1
COCCn1cc(C(=O)N[C@@H](CF)c2ccc(F)cc2)c2cc(-c3ccn4nc(NC(=O)N5CCOCC5)nc4c3)ccc21 [Compound 214] | 10 to 100

Compound | EC50 [nM]
Cn1cc(C(=O)N[C@@H](CF)c2cccc(F)c2)c2cc(-c3ccn4nc(NC(=O)[C@H]5CCCO5)nc4c3)ccc21 [Compound 183] | < 1
CC(C(=O)Nc1nn(C)c2ccc(-c3ccn4nc(NC(=O)CN(C)C)nc4c3)cc12)c1ccc(F)cc1 (stereo not drawn) [Compound 180] | 1000 to 10000
C[C@H](NC(=O)c1cn(C)c2ccc(-c3ccn4nc(NC(=O)CNC5CCOC5)nc4c3)cc12)c1ccc(F)cc1 (stereo partly drawn) [Compound 77] | < 1
CC(c1ccc(F)cc1)n1cnnc1-c1cn(C)c2ccc(-c3ccn4nc(NC(=O)C5CCOC5)nc4c3)cc12 (stereo not drawn) [Compound 217] | 10 to 100
CC(C(=O)Nc1nc2cc(-c3ccc4c(c3)c(C(=O)N[C@@H](C)c3ccc(F)cc3)cn4C)ccn2n1)N1CC[C@H](O)C1 (stereo partly drawn) [Compound 1] | 10 to 100
Cn1cc(C(=O)N[C@@H](CF)c2ccc(F)cc2)c2cc(-c3ccn4nc(NC(=O)C5(C)CCC5)nc4c3)ccc21 [Compound 105] | 10 to 100
CC(C(=O)Nc1cn(C)c2ccc(-c3ccn4nc(NC(=O)[C@H]5CCCO5)nc4c3)cc12)c1ccc(F)cc1 (stereo partly drawn) [Compound 179] | 100 to 1000
C[C@H](NC(=O)c1cn(C)c2ccc(-c3ccn4nc(NC(=O)CN5CCOCC5)nc4c3)cc12)c1ccc(Cl)cc1 [Compound 83] | < 1
C[C@H](NC(=O)c1cn(C)c2ccc(-c3ccn4nc(N5CCOCC5=O)nc4c3)cc12)c1ccc(F)cc1 [Compound 218] | 10 to 100
CCN(CC)CC(=O)Nc1nc2cc(-c3ccc4c(c3)c(C(=O)N[C@@H](C)c3ccc(F)cc3)cn4C)ccn2n1 [Compound 36] | < 1
COC1CCN(CC(=O)Nc2nc3cc(-c4ccc5c(c4)c(C(=O)N[C@@H](C)c4ccc(F)cc4)cn5C)ccn3n2)C1 (stereo partly drawn) [Compound 19] | < 1
Cn1cc(C(=O)N[C@@H](CF)c2ccc(F)cc2)c2cc(-c3ccn4nc(NC(=O)C#N)nc4c3)ccc21 [Compound 102] | < 1
Cn1cc(C(=O)N2CCC[C@H]2c2ccc(F)cc2)c2cc(-c3ccn4nc(NC(=O)N5CCOCC5)nc4c3)ccc21 [Compound 153] | < 1
C[C@H](NC(=O)c1cn(C)c2ccc(-c3ccn4nc(NC(=O)Cn5ccnc5)nc4c3)cc12)c1ccc(F)cc1 [Compound 48] | 10 to 100
Cn1cc(C(=O)Nc2nc3cc(-c4ccc5c(c4)c(C4=NC(c6ccc(F)cc6)CO4)cn5C)ccn3n2)cn1 (stereo not drawn) [Compound 213] | 10 to 100
C[C@H](NC(=O)c1cn(C)c2ccc(-c3ccn4nc(NC(=O)CN5CC6CC5CO6)nc4c3)cc12)c1ccc(Cl)cc1 (stereo partly drawn) [Compound 79] | < 1
C[C@H](NC(=O)c1nn(C)c2ccc(-c3ccn4nc(NC(=O)N5CCOCC5)nc4c3)cc12)c1ccc(F)cc1 [Compound 195] | < 1
C[C@H](NC(=O)c1cn(C)c2ccc(-c3ccn4nc(NC(=O)Cn5cncn5)nc4c3)cc12)c1ccc(F)cc1 [Compound 57] | 10 to 100
C[C@H](NC(=O)c1cn(C)c2ccc(-c3ccn4nc(NC(=O)c5cnn(C)c5)nc4c3)cc12)c1cccc(F)c1 [Compound 120] | < 1
